Test results taken from US10065990B2, “Cyclic peptide compound, and preparation method, pharmaceutical composition and use thereof” (HANGZHOU GUANYU BIO-MEDICAL CO., LTD, priority 2013, dated 2018).
Read-outs that look alike come from different tables or passages of the source.

How the values were obtained:
HDAC8 = target: T1, HDAC8 (Homo sapiens, UniProt Q9BY41); experiment: HDAC biochemical activity measurement (fluorescent substrate deacetylation); details: 37° C. 30 minutes
T1 sequence (Q9BY41 1-377): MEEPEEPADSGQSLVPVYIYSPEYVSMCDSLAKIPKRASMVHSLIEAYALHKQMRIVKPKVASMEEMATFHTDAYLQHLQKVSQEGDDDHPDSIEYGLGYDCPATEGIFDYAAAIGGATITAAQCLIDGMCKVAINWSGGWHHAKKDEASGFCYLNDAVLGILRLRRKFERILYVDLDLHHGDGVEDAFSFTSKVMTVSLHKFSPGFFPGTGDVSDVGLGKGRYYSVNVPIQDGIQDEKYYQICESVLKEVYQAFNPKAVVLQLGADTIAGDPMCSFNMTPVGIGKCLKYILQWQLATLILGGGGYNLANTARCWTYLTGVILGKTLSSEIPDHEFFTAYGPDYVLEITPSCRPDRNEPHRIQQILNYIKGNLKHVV

HDAC11 = target: T2, HDAC11 (Homo sapiens, UniProt Q96DB2); experiment: as above;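 further: HDAC11 enzyme acting on an acetyl-lysine fluorogenic substrate, then a developer frees the fluorophore, read at excitation 360 nm and emission 460 nm, IC50 over a compound dilution series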
T2 sequence (Q96DB2 1-347): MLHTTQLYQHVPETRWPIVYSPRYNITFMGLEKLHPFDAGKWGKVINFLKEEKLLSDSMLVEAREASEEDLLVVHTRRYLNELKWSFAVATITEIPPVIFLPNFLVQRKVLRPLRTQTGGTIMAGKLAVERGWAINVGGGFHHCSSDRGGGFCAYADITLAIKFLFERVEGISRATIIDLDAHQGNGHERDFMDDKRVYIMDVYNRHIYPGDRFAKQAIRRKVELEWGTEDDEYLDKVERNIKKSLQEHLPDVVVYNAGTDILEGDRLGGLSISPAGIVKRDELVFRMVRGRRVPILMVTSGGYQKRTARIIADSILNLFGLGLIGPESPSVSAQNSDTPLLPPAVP

HDAC1 = HDAC1 (Homo sapiens, UniProt Q13547); experiment: as above
[1] = system: PANC-1 (Pac-1, human pancreatic cancer cells); experiment: MTT cancer cell growth inhibition; type: cell-based; details: Homo sapiens, PANC-1, 72 h, MTT
In short: (§1)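 Cells seeded at 1500/well in DMEM or RPMI 1640 with 10% FBS, incubated overnight, then exposed to compound at 10^−5 to 10^−10 M final in triplicate for 72 h at 37° C, 5% CO2. MTT added for 4 h, formazan dissolved in DMSO, absorbance read at 570 nm; GI50 derived from viability.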

[2] = system: Huh-7 (human hepatoma cells); experiment: MTT cancer cell growth inhibition; type: cell-based; details: Homo sapiens, Huh-7, 72 h, MTT, 72 hours incubation, Huh-7 cells; read-out: GI50 Huh-7
In short: as §1

[3] = system: SGC-7901 (human gastric cancer cells); experiment: MTT cancer cell growth inhibition; type: cell-based; details: Homo sapiens, SGC-7901, 72 h, MTT, 72 hours incubation, SGC-7901 cells; read-out: GI50 SGC-7901
In short: as §1

[4] = system: U937 (human leukemia cells); experiment: MTT cancer cell growth inhibition; type: cell-based; details: Homo sapiens, U-937, 72 h, MTT
In short: as §1

[5] = system: BGC-823 (human gastric cancer cells); experiment: MTT cancer cell growth inhibition; type: cell-based; details: Homo sapiens, BGC-823, 72 h, MTT
In short: as §1

[6] = system: Hela (human cervical cancer cells); experiment: MTT cancer cell growth inhibition; type: cell-based; details: Homo sapiens, HeLa, 72 h, MTT
In short: as §1

[7] = system: Bel-7402 (human hepatoma cells); experiment: MTT cancer cell growth inhibition; type: cell-based; details: Homo sapiens, Bel-7402, 72 h, MTT, 72 hours incubation, Bel-7402 cells; read-out: GI50 Bel-7402
In short: as §1

[8] = system: MOLT-4 (human acute lymphoblastic leukemia cells); experiment: MTT cancer cell growth inhibition; type: cell-based; details: Homo sapiens, MOLT-4, 72 h, MTT
In short: as §1

[9] = system: A549 (human lung cancer cells); experiment: MTT cancer cell growth inhibition; type: cell-based; details: Homo sapiens, A549, 72 h, MTT
In short: as §1

[10] = system: MCF-7 (human breast cancer cells); experiment: MTT cancer cell growth inhibition; type: cell-based; details: Homo sapiens, MCF7, 72 h
In short: as §1

[11] = system: HCC827 (human non-small cell lung cancer cells); experiment: MTT cancer cell growth inhibition; type: cell-based; details: Homo sapiens, HCC827, 72 h, MTT, 72 hours incubation, HCC827 cells; read-out: GI50 HCC827
In short: as §1

[12] = system: DU145 (human prostate cancer cells); experiment: MTT cancer cell growth inhibition; type: cell-based; details: Homo sapiens, DU-145, 72 h, MTT
In short: as §1

[13] = system: N-87 (human gastric cancer cells); experiment: MTT cancer cell growth inhibition; type: cell-based; details: Homo sapiens, 72 h, MTT, 72 hours incubation, N-87 cells; read-out: GI50 N-87
In short: as §1

[14] = system: MDA-MB-231 (breast cancer cells); experiment: MTT cancer cell growth inhibition; type: cell-based; details: Homo sapiens, MDA-MB-231, 72 h, read-out: GI50 MDA-MB-231, MTT, 72 hours incubation, MDA-MB-231 cells
In short: as §1

[15] = system: HT1080 (human fibrosarcoma cells); experiment: MTT cancer cell growth inhibition; type: cell-based; details: Homo sapiens, HT-1080, 72 h, MTT
In short: as §1

[16] = HDAC1, 37° C. 30 minutes, read-out: IC50 HDAC1
[17] = PANC-1 cells, 72 hours incubation, read-out: GI50 PAN
[18] = U937 cells, 72 hours incubation, read-out: GI50 U93
[19] = BGC-823 cells, 72 hours incubation, read-out: GI50 BG
[20] = Hela cells, 72 hours incubation, read-out: GI50 Hela
[21] = MOLT-4 cells, 72 hours incubation, read-out: GI50 Mol
[22] = A549 cells, 72 hours incubation, read-out: GI50 A54
[23] = MCF-7 cells, 72 hours incubation, read-out: GI50 MCF
[24] = DU145 cells, 72 hours incubation, read-out: GI50 Du1
[25] = HT1080 cells, 72 hours incubation, read-out: GI50 HT1
[26] = 72 hours incubation, read-out: GI50 PAN
[27] = 72 hours incubation, read-out: GI50 U93
[28] = 72 hours incubation, read-out: GI50 BG
[29] = 72 hours incubation, read-out: GI50 Hela
[30] = 72 hours incubation, read-out: GI50 Mol
[31] = 72 hours incubation, read-out: GI50 A54
[32] = 72 hours incubation, read-out: GI50 MCF
[33] = 72 hours incubation, read-out: GI50 Du1
[34] = 72 hours incubation, read-out: GI50 HT1
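Wherever IC50 HDAC1 is given: fluorogenic acetyl-lysine substrate (20 µM) deacetylated by HDAC1, then developer releases fluorophore read at 360 nm excitation and 460 nm emission, inhibitor incubated 30 min at 37 °C.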
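Wherever IC50 HDAC1, C (six-membered ring with substituents) is given: fluorogenic acetyl-lysine substrate (20 µM) deacetylated by HDAC1, then developer releases fluorophore read at 360 nm excitation and 460 nm emission, inhibitor incubated 30 min at 37 °C.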
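Wherever IC50 HDAC1, a (compounds of the present invention) is given: fluorogenic acetyl-lysine substrate (20 µM) deacetylated by HDAC1, then developer releases fluorophore read at 360 nm excitation and 460 nm emission, inhibitor incubated 30 min at 37 °C.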

Sequence of HDAC1 (Q13547 whole entry, species assumed): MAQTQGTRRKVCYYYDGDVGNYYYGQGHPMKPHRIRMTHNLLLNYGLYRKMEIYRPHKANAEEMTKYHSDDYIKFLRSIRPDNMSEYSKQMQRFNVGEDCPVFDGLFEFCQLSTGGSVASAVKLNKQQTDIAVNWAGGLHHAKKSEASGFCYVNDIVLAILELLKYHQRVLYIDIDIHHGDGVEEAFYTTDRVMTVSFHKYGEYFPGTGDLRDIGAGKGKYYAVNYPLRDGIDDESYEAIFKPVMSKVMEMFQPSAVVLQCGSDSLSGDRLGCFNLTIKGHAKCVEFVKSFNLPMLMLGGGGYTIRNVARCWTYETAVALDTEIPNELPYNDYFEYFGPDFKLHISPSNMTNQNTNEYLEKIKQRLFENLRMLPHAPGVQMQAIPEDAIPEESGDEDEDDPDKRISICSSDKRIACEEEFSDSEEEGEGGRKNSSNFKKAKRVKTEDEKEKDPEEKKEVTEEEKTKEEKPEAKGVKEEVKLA

Structure (SMILES)	IC50 (HDAC8) [nM]	IC50 (HDAC11) [nM]	IC50 (HDAC1; [16]) [nM]	GI50 [1, 17] [nM]	GI50 [2] [nM]	GI50 [3] [nM]	GI50 [4, 18] [nM]	GI50 [5, 19] [nM]	GI50 [6, 20] [nM]	GI50 [7] [nM]	GI50 [8, 21] [nM]	GI50 [9, 22] [nM]	GI50 [10, 23] [nM]	GI50 [11] [nM]	GI50 [12, 24] [nM]	GI50 [13] [nM]	GI50 [14] [nM]	GI50 [15, 25] [nM]	GI50 [1, 26] [nM]	GI50 [4, 27] [nM]	other results
C/C=C1\NC(=O)c2cc(F)cc(n2)CNC(=O)C[C@@H](/C=C/CCSC(C)=O)OC(=O)[C@H](CCCCNC(=O)OCC2c3ccccc3-c3ccccc32)NC1=O [Compound 76]	28	–	51	–	26	51	–	–	–	72	–	–	–	72	–	32	26	–	70	30	IC50 (HDAC11; read-out: IC50 HDAC11, HDAC11, 37° C. 30 minutes): 94 nM; IC50 (HDAC1; Table 3, column C, read-out: IC50 HDAC1, C (six-membered ring with substituents)): 51 nM; GI50 [5, 28]: 30 nM; GI50 [6, 29]: 90 nM; GI50 [8, 30]: 20 nM; GI50 [9, 31]: 50 nM; GI50 [10, 32]: 30 nM; GI50 [12, 33]: 10 nM; GI50 [15, 34]: 70 nM
C/C=C1\NC(=O)c2nc(ccc2SC)CNC(=O)C[C@@H](/C=C/CCSC(=O)CCCCCCC)OC(=O)[C@H](C(C)C)NC1=O [Compound 147]	28	86	61	50	57	45	30	50	50	28	80	30	40	28	40	83	78	80	–	–	–

Second part, led by results:

IC50 (HDAC8) [nM]	IC50 (HDAC11) [nM]	IC50 (HDAC1; [16]) [nM]	GI50 [1, 17] [nM]	GI50 [2] [nM]	GI50 [3] [nM]	GI50 [4, 18] [nM]	GI50 [5, 19] [nM]	GI50 [6, 20] [nM]	GI50 [7] [nM]	GI50 [8, 21] [nM]	GI50 [9, 22] [nM]	GI50 [10, 23] [nM]	GI50 [11] [nM]	GI50 [12, 24] [nM]	GI50 [13] [nM]	GI50 [14] [nM]	GI50 [15, 25] [nM]	GI50 [1, 26] [nM]	GI50 [4, 27] [nM]	Structure (SMILES)	other results
55	67	19	950	59	32	10	10	80	88	30	190	70	79	90	31	16	30	–	–	C/C=C1\NC(=O)c2cccc(n2)CNC(=O)C[C@@H](/C=C/CCSC(=O)CCCCCCC)OC(=O)[C@H](CSCC)NC1=O [Compound 242]	IC50 (HDAC1; Table 2, read-out: IC50 HDAC1, a (compounds of the present invention)): < 20 nM; GI50 ([1]; 72 hours, present invention, read-out: GI50 PANC-1, a): 950 nM; GI50 ([4]; 72 hours, present invention, read-out: GI50 U937, a): 12 nM; GI50 ([5]; 72 hours, present invention, read-out: GI50 BGC823, a): 14 nM; GI50 ([6]; 72 hours, present invention, read-out: GI50 Hela, a): 88 nM; GI50 ([8]; 72 hours, present invention, read-out: GI50 Molt-4, a): 32 nM; GI50 ([9]; 72 hours, present invention, read-out: GI50 A549, a): 190 nM; GI50 ([10]; 72 hours, present invention, read-out: GI50 MCF7, a): 73 nM; GI50 ([12]; 72 hours, present invention, read-out: GI50 Du145, a): 91 nM; GI50 ([15]; 72 hours, present invention, read-out: GI50 HT1080, a): 330 nM
59	152	66	10	21	63	90	50	30	35	50	30	80	38	50	45	23	20	–	–	C/C=C1\NC(=O)c2nc(ccc2SC)CNC(=O)C[C@@H](/C=C/CCS)OC(=O)[C@H](C)NC1=O [Compound 232]	–
37	79	46	–	31	46	–	–	–	83	–	–	–	83	–	64	31	–	80	20	C/C=C1\NC(=O)c2ccc(F)c(n2)CNC(=O)C[C@@H](/C=C/CCSC(=O)CCCCCCC)OC(=O)[C@H](C)NC1=O [Example 62]	GI50 [5, 28]: 60 nM; GI50 [6, 29]: 90 nM; GI50 [8, 30]: 30 nM; GI50 [9, 31]: 40 nM; GI50 [10, 32]: 60 nM; GI50 [12, 33]: 10 nM; GI50 [15, 34]: 80 nM
